# Patent US20260085101A1, “NOVEL PLATELET DERIVED GROWTH FACTOR PEPTIDE MIMETIC” (THE UNIVERSITY OF SYDNEY, priority 2022, published 2026)
# Legend:
# Assay type in all cases: cell-based
# C2C12 mouse myoblasts = assay: Scratch migration (chemotaxis) assay on C2C12 cells; settings: for migration of cells across the scratch: 24 hours at 37° C., 10 ng/ml PDGF, 1 μg/ml peptides, mean (±SD); for increase in migration compared to the negative control (Mean Diff) / increase in migration compared to the no treatment control (Mean Diff.): 24 hours; for increase in migration compared to the negative control (Mean Diff): vs AG1296+PDGF−AB negative control; for increase in migration compared to the no treatment control (Mean Diff.): vs no treatment control
# Description: FIG. 2. Migration of C2C12 Mouse […] Cells Treated with PDGF and peptides JC5 and JC5a. C2C12 mouse fibroblast cells migrate across the scratch over 24 hours. Cells were treated with 10 ng/ml PDGF−AB (n=6), PDGF−BB (n=6), and 1 μg/ml of novel PDGF mimetic JC5 (n=6) and JC5a (n=3). […] There was also no statistically significant difference between the PDGF mimetic peptides and PDGF−AB and −BB positive controls. Error bars represent ±SD. The function of Compounds Ia (also referred to herein as JC5) and Ib (also referred to herein as JC5a) has been tested in vitro on the continuous cell line, C2C12 mouse myoblasts. In these in vitro assays recombinant PDGF−AB and −BB have been used as positive controls along with a serum starved no treatment control and the PDGF receptor inhibitor AG1296 co-treated with PDGF−AB as a negative control. The in vitro assays were designed to assess the major known functions of PDGF whilst also considering functions that are relevant to its in vivo applications. These functions were chemotaxis, collagen contraction, vascular tube formation and activation of the PDGF receptors via phosphorylation of Akt and Erk. Chemotaxis was assessed by making a scratch through a 2D culture of C2C12 cells following treatment with the four controls and the peptides JC5 and JC5a. They were then incubated for 24 hours at 37° C. Migration of the cells across the scratch at the conclusion of the incubation was measured and compared to the relevant controls described above. PDGF is a well-established mediator of chemotaxis and is expected to increase migration of the cells across the scratch over the course of 24 hours post treatment.
# [1] = test system: C3H10T½ mouse embryonic fibroblasts; assay: EdU proliferation assay (flow cytometry); settings: C3H10T½ cells, 1% FBS; for stimulation of the PDGF ligand/receptor pathway inferred from inhibition of EdU levels by AG1296 cotreatment: cotreatment with 10 μM AG1296; for stimulation of proliferation relative to 1% FBS: 24 hr, 20 ng/ml PDGF, 2 μg/ml peptides
# Description: FIG. 8. Proliferation of C3H10T½ Cells Following Treatment with PDGF and Novel PDGF Mimetic Peptides. Cultured C3H10T½ mouse embryonic fibroblast cells were treated with 20 ng/ml recombinant PDGF−AB or PDGF−BB protein ligands, and 2 μg/ml of novel PDGF mimetics JC5 or JC5a for 24 hr, in the presence of 1% fetal bovine serum (FBS). Percent proliferating cell was determined after a 2 hr pulse with nucleotide analogue EdU at the end of the incubation period. […] Co-treatment of protein/peptides with 10 μM of PDGF receptor antagonist, AG1296, confirmed that PDGF-BB-stimulated proliferation occurred via the PDGF ligand/receptor pathway. […] Error bars represent ±SD, n=3. Statistical analysis was using One-Way Anova: * p<0.05; ** p<0.01; *** p<0.001; **** p<0.0001. The mitotic effects of PDGF mimetic peptides JC5 and JC5a were tested using cultured C3H10T½ mouse embryonic fibroblasts. Proliferation was assayed after a pulse of nucleotide analogue 5-ethynyl-2′-deoxyuridine (EdU) and fluorescent detection using flow cytometry. Cells were treated with 20 ng/ml PDGF−BB or PDGF−AB, and 2 μg/ml of peptides JC5 or JC5a, in the presence of 1% fetal bovine serum (FBS) and DMEM for 24 hr. 10% FBS was used as a positive control, and co-treatments with specific PDGF receptor antagonist, AG1296, was used to ascertain whether proliferation occurred via the PDGF ligand/receptor pathway. Assays were performed in biological triplicate.
# [2] = test system: primary human coronary artery endothelial cells (HCAECs); assay: Vascular tube forming assay on Geltrex; settings: 24 hours; for tube length: 50 ng/ml PDGF, 5 μg/ml JC5, 10 μM AG1296, mean (±SD); for increased tube length compared to the negative control (Mean Diff.): vs AG1296+PDGF−AB (307.7 μm); for increased tube length compared to the no treatment control (Mean Diff.): vs no treatment control (305 μm)
# Description: FIG. 4. Tube formation of Human Coronary Artery Endothelial Cells Treated with PDGF and PDGF Mimetic Peptide JC5. Human coronary artery endothelial cells treated with 50 ng/ml of PDGF−AB and PDGF−BB produced longer tubes than untreated cells and cells treated with the PDGF receptor inhibitor AG1296+PDGF−AB. […] Error bars represent ±SD, n=3/group.
# PDGF has a well-established role in angiogenesis in vivo. To simulate this function in vitro a vascular tube forming assay on primary human coronary artery endothelial cells (HCAECs) was carried out. Cells were seeded on top of 3D growth factor reduced Geltrex basement membrane extract and incubated for 24 hours following treatment with the PDGF−AB, PDGF-BB, no treatment control, AG1296+PDGF−AB negative control, and peptides JC5 and JC5a. Over the course of 24 hours the cells form tubes throughout the gel. PDGF is reported to facilitate tube formation of endothelial cells in in vitro 3D assays.
# Cells treated with 50 ng/ml of PDGF−AB, PDGF-BB, and 5 μg/ml of JC5 produced longer more uniform tubes than untreated cells and cells treated with the negative control 10 μM PDGF receptor inhibitor AG1296 co-treated with 50 ng/ml PDGF−AB (FIG. 4). The positive controls PDGF−AB and PDGF−BB produced tubes that were 560.7 μm (±53.93) and 616.3 μm (±39.07), respectively. […] The no treatment control and AG1296+PDGF−AB negative control produced tubes that were 305 μm and 307.7 μm, respectively. […] In summary, JC5 has similar vascular tube forming ability to recombinant human PDGF−AB and PDGF-BB.
Compound,migration of cells across the scratch (C2C12 mouse myoblasts) [%],increase in migration compared to the negative control (Mean Diff) (C2C12 mouse myoblasts) [%],increase in migration compared to the no treatment control (Mean Diff.) (C2C12 mouse myoblasts) [%],stimulation of the PDGF ligand/receptor pathway inferred from inhibition of EdU levels by AG1296 cotreatment [1],stimulation of proliferation relative to 1% FBS [1],tube length [2] [μm],increased tube length compared to the negative control (Mean Diff.) [2] [μm],increased tube length compared to the no treatment control (Mean Diff.) [2] [μm]
PDGF Loop III dimer HSA (CVRKIEIVRKK)2(Peg3)2EYEK(Palm)EYE-C′ [JC5],68.28,51.71,47.96,weak stimulation of the PDGF ligand/receptor pathway,did not significantly stimulate proliferation,591.3,283.7,286.3
"CCCCCCCCCCCCCCCC(=O)NCCCC[C@H](NC(=O)[C@H](CCC(=O)O)NC(=O)[C@H](Cc1ccc(O)cc1)NC(=O)[C@@H](CCC(=O)O)NC(=O)CCOCCOCCOCCNC(=O)CCOCCOCCOCCNC(=O)[C@@H](CCCCN)NC(=O)[C@@H](CCCCN)NC(=O)[C@@H](CCCNC(=N)N)NC(=O)[C@@H](NC(=O)[C@@H](NC(=O)[C@H](CCC(=O)O)NC(=O)[C@@H](NC(=O)[C@H](CCCCN)NC(=O)[C@@H](CCCNC(=N)N)NC(=O)[C@H](NC(=O)[C@H](N)CSSC[C@@H](N)C(=O)N[C@@H](C(=O)N[C@H](CCCNC(=N)N)C(=O)N[C@@H](CCCCN)C(=O)N[C@H](C(=O)N[C@@H](CCC(=O)O)C(=O)N[C@H](C(=O)N[C@H](C(=O)N[C@H](CCCNC(=N)N)C(=O)N[C@H](CCCCN)C(=O)N[C@H](CCCCN)C(=O)NCCOCCOCCOCCC(=O)NCCOCCOCCOCCC(=O)N[C@H](CCC(=O)O)C(=O)N[C@@H](Cc1ccc(O)cc1)C(=O)N[C@@H](CCC(=O)O)C(=O)N[C@@H](CCCCNC(=O)CCCCCCCCCCCCCCC)C(=O)N[C@@H](CCC(=O)O)C(=O)N[C@@H](Cc1ccc(O)cc1)C(=O)N[C@@H](CCC(=O)O)C(N)=O)C(C)C)[C@H](C)CC)[C@@H](C)CC)C(C)C)C(C)C)[C@@H](C)CC)[C@H](C)CC)C(C)C)C(=O)N[C@@H](CCC(=O)O)C(=O)N[C@@H](Cc1ccc(O)cc1)C(=O)N[C@@H](CCC(=O)O)C(N)=O [JC5a, PDGF Loop III dimer USA dimer (CVRKIEIVRKK)2(Peg3)2(EYEK(Palm)EYE)2-C′]",79.88,62.71,59.56,,did not significantly stimulate proliferation,,,
"PDGF−AB: recombinant human PDGF−AB, AB heterodimer of recombinant PDGF, positive control",,,,weak stimulation of the PDGF ligand/receptor pathway,did not significantly stimulate proliferation,560.7,253,255.7
